Measured values reported in patent US10150776B2, “Harringtonines salts in the crystalline state and their use for the purification of the corresponding drug substance” (priority 2013, dated 2018).
Where two headings read alike, the source gives them in different places.

Experiments:
[1] = Solubility determination in water, semi-quantitative; format: physicochemical
Description: Solubility in water at 25° C. was measured semi-quantitatively at a threshold of 5 g per 100 mL. All the homoharringtonine salts described in the below examples, unless otherwise stated, are soluble at this threshold. Homoharringtonine base itself is soluble at a threshold lower than 0.1 g per mL

cancer = tested on: cancer; parameters: key: cytotoxic: CYTOTOXICITY is toxicity to tumor cells in culture; anticancer: ANTINEOPLASTIC or ANTICANCER iare the reserved terms for reportied clinical trials data; details: in cancer area; terms defined in table footnote; cited from earlier work

solubility ([1]; 25 °C) [mg/mL]	solubility ([1]; 25° C., semi-quantitative, read-out: Solubility in water (threshold)) [mg/mL]	Compound	Activity (cancer)
> 60		COC(=O)C[C@@](O)(CCCC(C)(C)O)C(=O)O[C@@H]1C(OC)=C[C@]23CCCN2CCc2cc4c(cc2[C@H]13)OCO4.O=C(O)C[C@H](O)C(=O)O [Example 3, HOMOHARRINGTONINE HYDROGEN (2S)-MALATE]	
		COC(=O)C[C@](O)(CCC(C)(C)O)C(=O)O[C@@H]1C(OC)=C[C@]23CCCN2CCc2cc4c(cc2[C@H]13)OCO4 [Example 5a, harringtonine]	anticancer
		COC(=O)CC(O)(CC(C)(C)O)C(=O)OC1C(OC)=CC23CCCN2CCc2cc4c(cc2C13)OCO4 (stereo not drawn) [Example 5c, norharringtonine]	none
		COC(=O)C[C@](O)(CCC(C)C)C(=O)O[C@@H]1C(OC)=C[C@]23CCCN2CCc2cc4c(cc2[C@H]13)OCO4 [Example 5d, deoxyharringtonine]	anticancer
		COC(=O)CC(O)(CCCCC(C)(C)O)C(=O)OC1C(OC)=CC23CCCN2CCc2cc4c(cc2C13)OCO4 (stereo not drawn) [Example 5e, bishomoharringtonine]	none
		COC(=O)[C@@H](O)[C@](O)(CCC(C)C)C(=O)O[C@@H]1C(OC)=C[C@]23CCCN2CCc2cc4c(cc2[C@H]13)OCO4 [Example 5f, isoharringtonine]	none
	< 100	COC(=O)C[C@](O)(CCCC(C)(C)O)C(=O)O[C@@H]1C(OC)=C[C@]23CCCN2CCc2cc4c(cc2[C@H]13)OCO4 [Homoharringtonine base, homoharringtonine]	anticancer
		neoharringtonine [Example 5g]	cytotoxic
